# Experimental data: patent US20150132342A1, “NOVEL IMMUNE ACTIVATORS: SUBSTITUTE 4-AMINOQUINAZOLINES” (The Regents of the University of California, priority 2013, published 2015)
# Legend:
# Type in all cases: cell-based
# [1] = test system: human PBMC; assay: MTT viability of human PBMC; details: 10 μM, 18 h incubation
# [2] = test system: human PBMC; assay: Type I IFN release by hPBMC measured in L929-ISRE luciferase reporter cells; details: 10 μM, overnight; LPS 10 ng/mL comparator
# Description: Type I interferon (IFN) assay. L929 cells stably expressing an IFN sensitive response element (ISRE) luciferase reporter construct were kindly provided by Dr. B. Beutler (UT Southwestern, Dallas, Tex.)^7. The bioactivity oftype I IFN in hPBMC supernatants was measured by luciferase assay using L929-ISRE cells as described previously.^7 L929-ISRE cells were plated at 5×10^4 cells per well inDulbecco's Modified Eagle Medium (Life Technologies) supplemented with 10% FCS, 100 U/mL penicillin and 100 μg/mL streptomycinin a 96-well white-walled clear-bottom plate and incubated overnight. Thus, 50 μL of supernatant was incubated with L929-ISRE cells in 50 μL of DMEM for 6 h. The luciferase activities were measured by GloBrightLuciferase Assay Buffer (Promega, Madison, Wis.).
# [3] = biological target: T1, TLR4/MD-2/CD14 (Homo sapiens, UniProt O00206+Q9Y6Y9); assay: hTLR4 HEK Blue reporter cells, NF-κB SEAP secretion (QuantiBlue OD630)
# T1 construct: host or cells: HEK293 (HEK Blue hTLR4)
# T1 sequence (O00206 24-839): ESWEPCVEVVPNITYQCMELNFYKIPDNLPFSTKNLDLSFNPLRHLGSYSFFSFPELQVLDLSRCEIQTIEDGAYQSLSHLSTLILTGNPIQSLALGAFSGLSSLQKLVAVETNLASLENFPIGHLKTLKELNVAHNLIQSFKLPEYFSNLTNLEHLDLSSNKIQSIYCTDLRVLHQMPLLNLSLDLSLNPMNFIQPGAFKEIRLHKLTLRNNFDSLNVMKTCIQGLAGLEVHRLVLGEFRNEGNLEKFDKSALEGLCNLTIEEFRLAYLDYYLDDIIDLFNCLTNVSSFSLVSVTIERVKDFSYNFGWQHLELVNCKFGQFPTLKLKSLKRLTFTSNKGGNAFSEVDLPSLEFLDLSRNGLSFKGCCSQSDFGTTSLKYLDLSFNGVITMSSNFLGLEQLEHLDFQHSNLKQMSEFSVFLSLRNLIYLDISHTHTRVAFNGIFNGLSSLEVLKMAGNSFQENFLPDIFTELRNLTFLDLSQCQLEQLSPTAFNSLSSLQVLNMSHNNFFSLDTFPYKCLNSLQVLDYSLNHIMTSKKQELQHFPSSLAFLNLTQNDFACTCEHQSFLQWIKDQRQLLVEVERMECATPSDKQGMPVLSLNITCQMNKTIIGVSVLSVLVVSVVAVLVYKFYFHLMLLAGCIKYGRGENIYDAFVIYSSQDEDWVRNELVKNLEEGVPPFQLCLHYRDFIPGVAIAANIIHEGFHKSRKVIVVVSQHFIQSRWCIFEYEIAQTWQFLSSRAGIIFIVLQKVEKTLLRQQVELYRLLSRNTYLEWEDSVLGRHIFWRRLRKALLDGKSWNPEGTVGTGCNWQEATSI
# T1 sequence (Q9Y6Y9 19-160): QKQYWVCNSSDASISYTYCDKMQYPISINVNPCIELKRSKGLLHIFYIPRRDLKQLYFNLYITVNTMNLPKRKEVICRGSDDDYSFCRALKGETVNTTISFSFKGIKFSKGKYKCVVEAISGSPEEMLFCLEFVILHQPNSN
# Description: In vitro assays using TLR reporter cell lines. Murine or humanTLR4 HEK Blue™ cells (Invivogen, 2.5×10^4 cells per well of a 96 well plate), or NF-κB/SEAPorter™ HEK 293 cells (Imgenex, San Diego, Calif.) for human TLR2, TLR3, TLR5, TLR7, TLR8, or TLR9 (5×10^4 cells per well of 96 well plate) were incubated with graded doses of the test compound. The culture supernatants were harvested after a 20-24 h incubation period. Secreted alkaline phosphatase (SEAP) activity in the supernatants was determined by a colorimetric assay, using either the SEAPorter Assay Kit (Imgenex, San Diego, Calif.), with absorbance read at 405 nm, or QuantiBlue (Invivogen), with absorbance read at 630 nm. In some experiments, graded concentrations of LPS-RS ([…], Invivogen) were used to test TLR4-specific binding of the hit compound.
# [4] = test system: human PBMC; assay: CD80 and CD83 expression in CD11c+ HLA-DR+ human PBMC (flow cytometry); details: 5 μM overnight; CD11c+HLA-DR+ gated population
# Description: FIG. 2. Compound 1a induces type I IFN and expression of co-stimulatory molecules. A) Human PBMC were incubated with compound 1a (10 μM), LPS (10 ng/mL), or vehicle overnight. The release of type I IFN in the culture supernatants was measured by luciferase release in L929-ISRE reporter cells. Data shown are mean±SEM of triplicates. B) Compound 1a- or vehicle-treated wild type or Tlr4^−/−mBMDC were stained for CD11c and either CD40, CD80, or CD86. The expression levels of CD40, CD80, or CD86 were evaluated in the gated CD11c^+ population. DMSO 0.5% served as the vehicle control. C) Human PBMC were incubated with compound 1a (5 μM) overnight. CD80 and CD83 expression in gated CD11c^+ HLA-DR^+ population was analyzed by flow cytometer. Data are representative of two independent experiments showing similar results.
# To evaluate whether treatment of DCs with this compound can induce maturation in these cells, mBMDC prepared from wild type or TLR4 deficient mice were exposed to compound 1a and then assayed for expression of co-stimulatory molecules CD40, CD80, and CD86 in the CD11c+ population (FIG. 2B). […] Induction of co-stimulatory molecules by compound 1a was also confirmed in human PBMC.
# [5] = test system: human PBMC; assay: IL-8 release in human PBMC (ELISA)
# Description: In vitro activities in human peripheral blood mononuclear cells (PBMC). Human PBMC were isolated from buffy coats obtained from the San Diego Blood Bank (San Diego, Calif.) as described previously.^5,6 PBMC (1×10^6/mL) were incubated with various compounds in complete RPMI (Omega Scientific) for 18 h at 37° C., 5% CO2 and culture supernatants were collected. The levels of IL-8 in the supernatants were determined by ELISA (BD Biosciences).
compound,measurement,setting,value
"CCOC(=O)c1nc(Nc2cc(Oc3ccccc3)cc([N+](=O)[O-])c2)c2ccccc2n1 [Compound 1a, Ethyl 4-((3-nitro-5-phenoxyphenyl)amino)quinazoline-2-carboxylate]",Viability by MTT assay,[1],112±2.1%
same,Release of type I IFN,[2],comparable to that of LPS
same,hTLR4 0.5 μM,"[3]; 0.5 μM, Quantiblue OD630 of hTLR4 HEK Blue cells, normalized to LPS positive control=100",49.1
same,NF-κB activation induced by compound in presence of competitive antagonist LPS-RS,"[3]; 10 μM compound, LPS-RS 12, 111, 1000 ng/mL, dose dependent",inhibited
same,Expression of CD80 and CD83,[4],increased expression of CD80 and CD83
same,IL-8 release (% of LPS control) at 0.5 µM,"[5]; Homo sapiens, PBMC, 18 h, 0.5 μM, IL-8 release, normalized to LPS positive control=100",22.2%
same,Concentration inducing detectable levels of IL-8,"[5]; hPBMC, graded concentrations",below 1 μM
same,IL-8 release in presence of polymyxin B,"[5]; polymyxin B 10 μg/mL, overnight",not reduced
